In US5935973A, “Heterocyclcarboxamide derivatives and their use as therapeutic agents” (Knoll Aktiengesellschaft, priority 1995, dated 1999) one finds inhibition and Ki data, which are given here for 15 compounds.

Each structure is given as a SMILES string.

In the first test the target is T1, α2A-adrenoceptors (Homo sapiens, UniProt P08913).
T1 construct: Human cerebral cortex obtained at post-mortem; from tissue; host or cells: human post-mortem cerebral cortex membranes
T1 sequence (P08913 1-465): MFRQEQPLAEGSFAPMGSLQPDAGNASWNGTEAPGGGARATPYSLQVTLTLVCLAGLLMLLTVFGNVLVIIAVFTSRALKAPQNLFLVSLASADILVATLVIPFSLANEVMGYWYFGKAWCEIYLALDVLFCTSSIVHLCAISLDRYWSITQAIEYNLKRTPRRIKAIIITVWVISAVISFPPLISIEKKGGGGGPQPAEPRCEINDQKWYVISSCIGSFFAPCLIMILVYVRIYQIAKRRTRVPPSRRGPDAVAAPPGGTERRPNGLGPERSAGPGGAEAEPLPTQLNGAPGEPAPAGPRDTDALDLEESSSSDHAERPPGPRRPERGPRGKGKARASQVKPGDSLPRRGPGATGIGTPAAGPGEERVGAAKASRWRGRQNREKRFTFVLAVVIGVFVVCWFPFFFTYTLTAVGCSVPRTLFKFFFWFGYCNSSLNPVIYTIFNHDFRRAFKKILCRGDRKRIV
Kind of test: inhibition of tritiated RX 821002 binding to α2A-adrenoceptors in human cerebral cortex. Particulars: at 10^-6 M, tritiated RX 821002, read-out: % displacement of radio ligand, α2A. The protocol:
Human cerebral cortex obtained at post-mortem was homogenised in ice-cold 0.25M sucrose (1:30 w/v) and centrifuged at 1,000 g at 4° C. for 12 minutes. The supernatant was stored on ice and the pellet was rehomogenised in 0.25M sucrose (1:15 w/v) and centrifuged at 850 g at 4° C. for 12 minutes. Combined supernatants were diluted with 5mM Tris-HCl (pH 7.5) containing 5 mM ethylenediamine tetraacetic acid (EDTA), readjusted to pH 7.5 (at 25° C.) with 1M sodium hydroxide to 1:80 w/v, and centrifuged at 11,000 g at 4° C. for 10 minutes. The resulting pellet was resuspended in 50 mM Tris-HCl (pH 7.5) containing 5.68 mM L-ascorbic acid and 0.5 mM EDTA, readjusted to pH 7.5 (at 25° C.) with 1 M sodium hydroxide to 1:80 w/v, and centrifuged at 11,000 g for 10 minutes. The pellet was stored at -80° C. On the day of the assay the pellet was thawed, resuspended in 50 mM Tris-HCl (pH 7.5) containing 5.68 mM L-ascorbic acid and 5 mM EDTA to 1:80 w/v and centrifuged at 11,000 g for 10 minutes. The final pellet was resuspended in 50 mM Tris-HCl (pH 7.5) containing 5.68 mM L-ascorbic acid and 5 mM EDTA (equivalent to 25 mg wet weight of tissue/ml).
Aliquots (400 μl; equivalent to 10 mg wet weight of tissue/tube) of this suspension were added to tubes containing the ligand (50 μl; 0.2 nM) and distilled water (50 μl; total binding) or phentolamine (50 μl; 50 μM; non-specific binding) or test compound (50 μl; at a single concentration of 10^-6 M or at 10 concentrations ranging from 10^-11 -10^-3 M). The ligand was tritiated RX 821002 (2-(2-methoxy-1,4-[6,7(n)-^3 H]benzodioxan-2-yl)-2-imidazoline) and the mixture was incubated at 0° C. for 75 minutes before the incubation was terminated by rapid filtration.
The filters were washed with ice-cold Tris-HCl buffer and dried. The filters were punched out into vials, scintillation fluid added and radioactivity determined by liquid scintillation counting. The percentage displacement of specific binding of the tritiated ligand was calculated for the single concentration (10^-6 M) of test compound. Displacement curves were then produced for those compounds which displaced ≥50% of specific binding of the tritiated ligand at 10^-6 M using a range of concentrations of the compound. The concentration which gave 50% inhibition of specific binding (IC50)was obtained from the curve. The inhibition coefficient Ki was then calculated using the formula [formula] in which [ligand] is the concentration of the tritiated ligand used and KD is the equilibrium dissociation constant for the ligand.
With `Cc1ccc2c(c1)O[C@@H](CN1CCC(CNC(=O)c3cccnc3N)CC1)CO2` [Example 5, (S)-2-amino-N-{[1-(7-methyl-1,4-benzodioxan-2-ylmethyl)-4-piperidyl]methyl}pyridine-3-carboxamide], the inhibition at 1 µM is 98%.

As to `O=C(NCC1CCN(CC2COc3ccccc3O2)CC1)c1ccccn1` (stereo not drawn) [Example 6, N-{[1-(1,4-benzodioxan-2-ylmethyl)-4-piperidyl]methyl}pyridine-2-carboxamide], the inhibition at 1 µM was determined as 100%.

Consider `O=C(NCC1CCN(CC2COc3ccccc3O2)CC1)c1cccc2cccnc12` (stereo not drawn) [Example 8, N-{[1-(1,4-benzodioxan-2-ylmethyl)-4-piperidyl]methyl}quinoline-8-carboxamide], for which the inhibition at 1 µM is 99%.

On to `Cc1ncccc1C(=O)NCC1CCN(C[C@H]2COc3cccc(Cl)c3O2)CC1` [Example 9, (S)-N-{[1-(8-chloro-1,4-benzodioxan-2-ylmethyl)-4-piperidyl]methyl}-2-methylpyridine-3-carboxamide], for which the inhibition at 1 µM worked out at 99%.

With `Nc1ncccc1C(=O)NCC1CCN(CC2COc3ccc(F)cc3O2)CC1` (stereo not drawn) [Example 10, 2-amino-N-{[1-(7-fluoro-1,4-benzodioxan-2-ylmethyl)-4-piperidyl]methyl}pyridine-3-carboxamide], the inhibition at 1 µM was 100%.

Consider `COc1cccc2c1OC(CN1CCC(CNC(=O)c3cccnc3N)CC1)CO2` (stereo not drawn) [Example 11, 2-amino-N-{[1-(8-methoxy-1,4-benzodioxan-2-ylmethyl)-4-piperidyl]methyl}pyridine-3-carboxamide], for which the inhibition at 1 µM is 99%.

As to `O=C(NCC1CCN(C[C@H]2COc3ccc(Cl)cc3O2)CC1)c1ccccn1` [Example 12, (S)-N-{[1-(7-chloro-1,4-benzodioxan-2-ylmethyl)-4-piperidyl]methyl}pyridine-2-carboxamide], the inhibition at 1 µM was 99%.

In the case of `Cc1cccc2c1O[C@@H](CN1CCC(CNC(=O)c3cccnc3N)CC1)CO2` [Example 13, (S)-2-amino-N-{[1-(8-methyl-1,4-benzodioxan-2-ylmethyl)-4-piperidyl]methyl}pyridine-3-carboxamide], the inhibition at 1 µM worked out at 100%.

As to `Nc1ncccc1C(=O)NCC1CCN(C[C@H]2COc3ccccc3O2)CC1` [Example 15, (S)-2-amino-N-{[1-(1,4-benzodioxan-2-ylmethyl)-4-piperidyl]methyl}pyridine-3-carboxamide], the inhibition at 1 µM came to 100%.

For `Nc1ccsc1C(=O)NCC1CCN(CC2COc3ccccc3O2)CC1` (stereo not drawn) [Example 16, 3-amino-N-{[1-(1,4-benzodioxan-2-ylmethyl)-4-piperidyl]methyl}thiophene-2-carboxamide], the inhibition at 1 µM was 100%.

Regarding `Nc1ccsc1C(=O)NCC1CCN(C[C@H]2COc3ccc(Cl)cc3O2)CC1` [Example 17, (S)-3-amino-N-{[1-(7-chloro-1,4-benzodioxan-2-ylmethyl)-4-piperidyl]methyl}thiophene-2-carboxamide], the inhibition at 1 µM was found to be 99%.

As for `Nc1ncccc1C(=O)NCC1CCN(C[C@H]2COc3cccc(C(F)(F)F)c3O2)CC1` [Example 20, (S)-2-amino-N-{[1-(8-trifluoromethyl-1,4-benzodioxan-2-ylmethyl)-4-piperidyl]methyl}pyridine-3-carboxamide], the inhibition at 1 µM worked out at 101%.

With `O=C(NCC1CCN(C[C@H]2COc3ccc(Cl)cc3O2)CC1)c1cccnc1` [Example 22, (S)-N-{[1-(7-chloro-1,4-benzodioxan-2-ylmethyl)-4-piperidyl]methyl}pyridine-3-carboxamide], the inhibition at 1 µM was 99%.

For the compound `O=C(NCC1CCN(C[C@H]2COc3ccc(Cl)cc3O2)CC1)c1cccc2cccnc12` [Example 23, (S)-N-{[1-(7-chloro-1,4-benzodioxan-2-ylmethyl)-4-piperidyl]methyl}quinoline-8-carboxamide], the inhibition at 1 µM was 98%.

Staying with this test, now noted: tritiated RX 821002 0.2 nM, 0° C., 75 min.
`COc1ccc2c(c1)O[C@@H](CN1CCC(CNC(=O)c3cccnc3N)CC1)CO2` [Example 7, (S)-2-amino-N{[1-(7-methoxy-1,4-benzodioxan-2-ylmethyl)-4-piperidyl]methyl}-pyridine-3-carboxamide]: affinity was put at a Ki of 2.8 nM.

The Ki is the equilibrium dissociation constant of an inhibitor or competing ligand from its target. A higher Ki goes with lower affinity.
